Assays:
Format in all cases: biochemical, Alcaligenes faecalis
[1] = system: LAC1* (purified extracellular laccase); assay: spectrophotometric oxidation at […] nm, Lineweaver-Burk; details: pH 8.0, 80 °C, 50-500 μM substrate
[2] = system: LAC1* (purified extracellular laccase); assay: spectrophotometric oxidation; details: optimized conditions (optimum pH for ABTS 5.5), 50-500 μM substrate
[3] = system: LAC1* (purified extracellular laccase); assay: spectrophotometric oxidation; details: optimized conditions (optimum pH for guaiacol 8), 50-500 μM substrate

COc1cccc(OC)c1O [2,6-DMP]
Km [1]: 480 µM

CCn1c(=NN=c2sc3cc(S(=O)(=O)O)ccc3n2CC)sc2cc(S(=O)(=O)O)ccc21 [ABTS]
Km [2]: 500 µM

COc1ccccc1O [Guaiacol]
Km [3]: 1000 µM
